# Results taken from article PMC4848495, “Identification of a Potent and Broad-Spectrum Hepatitis C Virus Fusion Inhibitory Peptide from the E2 Stem Domain” (Scientific Reports, 2016).
# Residues, ends and D or L forms follow the SMILES beside them.
# Target: HCV glycoprotein E1E2-mediated membrane fusion (Hepatitis C virus genotype 1a, UniProt P27958)
# Test: cell-based
# Assay type: cell-based, Hepatitis C virus (strain H77)
# Settings: not given
# Chain of HCV glycoprotein E1E2-mediated membrane fusion (P27958 384-746): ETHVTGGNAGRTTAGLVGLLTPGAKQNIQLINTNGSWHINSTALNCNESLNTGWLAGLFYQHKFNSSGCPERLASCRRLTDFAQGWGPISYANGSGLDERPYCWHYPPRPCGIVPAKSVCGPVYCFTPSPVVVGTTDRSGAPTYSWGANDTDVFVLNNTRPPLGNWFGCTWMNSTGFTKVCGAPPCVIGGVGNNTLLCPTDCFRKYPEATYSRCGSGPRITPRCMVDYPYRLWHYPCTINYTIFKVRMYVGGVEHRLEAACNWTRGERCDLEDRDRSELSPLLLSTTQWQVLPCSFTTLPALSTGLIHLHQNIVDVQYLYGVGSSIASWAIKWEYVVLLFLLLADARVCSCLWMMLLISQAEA
# Chain of HCV glycoprotein E1E2-mediated membrane fusion (P27958 192-383): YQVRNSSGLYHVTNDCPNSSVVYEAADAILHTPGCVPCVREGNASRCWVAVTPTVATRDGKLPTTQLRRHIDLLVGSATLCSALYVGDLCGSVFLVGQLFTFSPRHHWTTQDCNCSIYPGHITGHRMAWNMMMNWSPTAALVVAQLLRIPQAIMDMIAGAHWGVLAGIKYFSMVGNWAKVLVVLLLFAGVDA
row,Molecule,EC50 [µM]
1,CC[C@H](C)[C@H](NC(=O)[C@H](C)NC(=O)[C@H](Cc1c[nH]c2ccccc12)NC(=O)[C@H](CO)NC(=O)[C@H](C)NC(=O)[C@@H](NC(=O)[C@H](CO)NC(=O)[C@H](CO)NC(=O)CNC(=O)[C@@H](NC(=O)CNC(=O)[C@H](Cc1ccc(O)cc1)NC(=O)[C@H](CC(C)C)NC(=O)[C@H](Cc1ccc(O)cc1)NC(=O)[C@H](CCC(N)=O)NC(=O)[C@@H](NC(=O)[C@H](CC(=O)O)NC(=O)[C@@H](NC(=O)[C@@H](NC(=O)[C@H](CC(N)=O)NC(=O)[C@H](CCC(N)=O)NC(=O)[C@H](Cc1c[nH]cn1)NC(=O)[C@H](CC(C)C)NC(=O)[C@H](Cc1c[nH]cn1)NC(=O)[C@@H](NC(=O)[C@H](CC(C)C)NC(=O)CNC(=O)[C@@H](NC(=O)[C@H](CO)NC(=O)[C@H](CC(C)C)NC(=O)[C@H](C)NC(=O)[C@@H]1CCCN1C(=O)[C@H](CC(C)C)NC(=O)[C@@H](N)[C@@H](C)O)[C@@H](C)O)[C@@H](C)CC)[C@@H](C)CC)C(C)C)C(C)C)C(C)C)[C@@H](C)CC)C(=O)N[C@@H](CCCCN)C(=O)O [E28] (H-TLPALSTGLIHLHQNIVDVQYLYGVGSSIASWAIK-OH; N-terminus and C-terminus assumed),> 20

# Same assay, conditions: Cre/stop fusion system, peptide 1 µM, luciferase divided by solvent control (0.5% DMSO)
row,Molecule,% of fusion [%]
1,"AAC NW TR GERCN LEDRDRS E LS P LLLS TTE [HCV-31, 30-mer of overlapping E1E2 peptide library]",56.9
2,"AGLAYYSMVGNWAKVLIVMLLF AGVDGGTY [HCV-12, 30-mer of overlapping E1E2 peptide library]",122.8
3,"CGS GP WLTP RCLVHYP YRLWHYP CTVNFTI [HCV-28, 30-mer of overlapping E1E2 peptide library]",82.2
4,"CSNASIVYEAADMIMHTP GC VP CVRENNSS [HCV-2, 30-mer of overlapping E1E2 peptide library]",80.8
5,"CTWMNSTGF TKTC GGP P CNIGGI GNKTLTC [HCV-25, 30-mer of overlapping E1E2 peptide library]",87.4
6,"EYVLLLFLLLADARVCACLWMMLLIAQAEA [HCV-36, 30-mer of overlapping E1E2 peptide library]",10.7
7,"FGVP TYSWGENE TDVLLLNNTRPP QGNWFG [HCV-23, 30-mer of overlapping E1E2 peptide library]",145.0
8,"FKVRMYVGGVEHRLE AACNWTRGERCNLED [HCV-30, 30-mer of overlapping E1E2 peptide library]",99.6
9,"FNSSGCPERMASCSPIDAFAQGWGPITYNE [HCV-18, 30-mer of overlapping E1E2 peptide library]",70.8
10,"GAAALCSAMYV GDLC GSVFLVAQLF TFSP R [HCV-6, 30-mer of overlapping E1E2 peptide library]",81.5
11,"GSVFLVAQLFTFSPRRHETVQDCNCSIYPG [HCV-7, 30-mer of overlapping E1E2 peptide library]",85.5
12,"HTP GCVP CVRENNSSRCWVALTP TLAAR NA [HCV-3, 30-mer of overlapping E1E2 peptide library]",64.3
13,"HVTGHRMAWDMMMNWSP TAALVVSQLLRIP [HCV-9, 30-mer of overlapping E1E2 peptide library]",56.9
14,"IDAF AQGWGP ITYNESHSSDQRP YCWHYAP [HCV-19, 30-mer of overlapping E1E2 peptide library]",129.8
15,"LFSP GSSQKIQLVNTNGS WHI NRTALNCND [HCV-15, 30-mer of overlapping E1E2 peptide library]",56.0
16,"LIVMLLF AGVDGGTYVTGGTMAKNTLGI TS [HCV-13, 30-mer of overlapping E1E2 peptide library]",60.1
17,"LYGIGS AVVSFAIKWEYVLLLFLLLADARV [HCV-35, 30-mer of overlapping E1E2 peptide library]",40.0
18,"NGS WHINR TALNCNDSLNTGFLAALFYVHK [HCV-16, 30-mer of overlapping E1E2 peptide library]",64.2
